Values of other authors in patent US20010008638A1, “N[…] LEAST ONE […] AT LEAST ONE ANTI-ESTROGEN COMPOUND IN A TIME-RELEASE DOSAGE FORM” (priority 1999, published 2001).

Details: fold more potent than testosterone

Q: With `C[C@]12CCC(=O)C[C@@H]1CC[C@@H]1[C@@H]2CC[C@]2(C)[C@@H](O)CC[C@@H]12` [DHT, dihydrotestosterone] as the compound, how does the “potency relative to testosterone” value read?
A: The value was ~10 times.
